Legend:
A549 cells [1] = experiment: SK1 and SK2 protein (Western blotting) and mRNA (qRT-PCR) levels; assay type: cell-based, human; details: 5 and 10 μM, 24 h
Description: (§1) Western blotting measured changes in apoptosis-related proteins (PARP, BAX, BCL-2, Caspase-3). A549 cells (1 × 10^6 cells per well in 6-well plates) were incubated for 24 h. Cells were treated with concentrations of the compounds and incubated for 24 h. Then, cells were dissolved on ice for two hours with a lysis buffer containing a mixture of protease and phosphatase inhibitors. The lysate was centrifuged at 12,000× g for 15 min at 4 °C, and the supernatant was collected. Protein concentrations were measured using a bicinchoninic acid protein assay kit. Total protein was separated by 8–10% sodium dodecyl sulfate–polyacrylamide gel electrophoresis (SDS-PAGE) and transferred onto polyvinylidene fluoride (PVDF) membranes. After being blocked with 5% skim milk, membranes were probed overnight at 4 °C with primary antibodies against SK1, SK2, PARP, BAX, Bcl-2, Caspase-3, and β-actin. Then, the membranes were incubated with subsequent secondary antibodies at room temperature. Then, the protein expressions were measured by Amersham Imager 680 (GE Healthcare, Leiden, WZ, The Netherlands).
RNAs were isolated using the Trizol/chloroform reagent (Invitrogen, Waltham, MA, USA). […] For quantitative analysis of various genes, qRT-PCR was performed using the Bio-Rad CFX384 Touch Real-time PCR detection system (Bio-Rad, Hercules, CA, USA) with SYBR Premix Ex Taq (Takara Bio, Shiga, Japan) for 40 cycles.

[2] = In vitro metabolic stability, dog liver microsomes; assay type: in vitro ADME; details: pooled liver microsomes, NADPH, 37 °C, 0 and 30 min
A549 and H1299 cells = experiment: Cell proliferation / viability assay (EZ-CYTOX)
A549 cells [3] = experiment: Annexin V-FITC apoptosis analysis; assay type: cell-based, human; details: 24 h
Description: A549 cells (1 × 10^5 cells) were seeded in into a 12-well plate. […] After harvesting the cells, the binding buffer was added and then incubated with annexin-V-FITC and PI at room temperature for 15 min. The stained cells were analyzed with MACS Quant Analyzer 10 Flow Cytometer (Miltenyi Biotec, Bergisch Gladbach, Germany) within 1 h.

SK1 [4] = biological target: T1, SK1 (Homo sapiens, UniProt Q9NYA1); experiment: SK1 activity assay (Adapta screening system)
T1 sequence (Q9NYA1 whole entry): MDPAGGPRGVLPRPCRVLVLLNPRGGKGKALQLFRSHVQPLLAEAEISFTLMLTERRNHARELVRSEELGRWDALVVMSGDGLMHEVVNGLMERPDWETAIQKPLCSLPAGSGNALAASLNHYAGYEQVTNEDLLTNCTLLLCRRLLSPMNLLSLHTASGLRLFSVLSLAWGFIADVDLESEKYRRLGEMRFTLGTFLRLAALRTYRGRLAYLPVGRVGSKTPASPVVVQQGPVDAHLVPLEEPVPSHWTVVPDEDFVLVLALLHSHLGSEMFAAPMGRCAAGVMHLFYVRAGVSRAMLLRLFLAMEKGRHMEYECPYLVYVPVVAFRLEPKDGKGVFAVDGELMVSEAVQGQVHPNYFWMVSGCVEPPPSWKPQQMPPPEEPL

A549 cells [5] = experiment: Levels of sphingosine, ceramide and S1P (ELISA); assay type: cell-based, human; details: 5 and 10 μM
Description: After seeding 1 × 10^6 cells/well into a 6-well plate and incubating for 24 h, the synthetic compounds were treated by concentration. Then, cells were collected and freezing and thawing were repeated three to five times, and centrifuged supernatant was used for testing. The levels of sphingosine, ceramide, and S1P were measured according to the proposed manual using each ELISA kit (Mybiosource, Inc., San Diego, CA, USA).

[6] = In vitro metabolic stability, rat liver microsomes; assay type: in vitro ADME; details: pooled liver microsomes, NADPH, 37 °C, 0 and 30 min
A549 cells [7] = experiment: Mitochondrial membrane potential measurement (JC-10); assay type: cell-based, human; details: 10 μM, 24 h
Description: To access the mechanism of cell death, Mitochondrial Membrane Potential (MMP) was performed using JC-10 cationic dye. […] Cells were collected, and 20 μM JC-10 dye prepared in HBSS solution (0.14 M NaCl, 0.005 M KCl, 0.001 M CaCl2, 0.005 M MgSO4-7H2O, 0.0004 M MgSO4-6H2O, 0.0003 M Na2HPO4-2H2O, 0.0004 M KH2PO4, 0.006 M D-glucose, 0.004 M NaHCO3, 0.002 M HEPES, and 0.02% Pluronic® F-127) was added to the cell for 30 min and mixed. The samples were protected from light and measured by using the MACS Quant Analyzer 10 Flow cytometer.

[8] = In vitro metabolic stability, human liver microsomes; details: pooled liver microsomes 0.5 mg/mL, NADPH, 37 °C, 0 and 30 min
A549 cells [9] = experiment: Western blotting of apoptosis-related proteins; assay type: cell-based, human; details: 5 and 10 μM, 24 h
Description: as §1

[10] = In vitro metabolic stability, mouse liver microsomes; assay type: in vitro ADME; details: pooled liver microsomes, NADPH, 37 °C, 0 and 30 min
A549 cells [11] = experiment: Colony formation assay; assay type: cell-based, human; details: 5 and 10 μM
Description: A549 cells (1 × 10^3 cells/well) were seeded into six-well plates and then each compound was treated at 5 and 10 μM for 12 h. The medium was changed every two days, and the cells were cultured in a fresh medium for 10 days. The obtained colonies were fixed with 25% glutaraldehyde for 20 min and then stained with 0.1% crystal violet for 15 min.

A549 cells [12] = experiment: Cytotoxicity after SK1/SK2 siRNA transfection; assay type: cell-based, human; details: A549 cells transfected with siSK1, siSK2; 24 h
Description: Control small interfering RNA (siControl) was obtained from Bioneer (Daejeon, Korea), while SK1 (sc-44114) and SK2 (sc-39225) siRNA (siSK1 and siSK2) were purchased from Santa Cruz Biotechnology (Dallas, TX, USA). Cells were transfected using Lipofectamine RNAiMAX Reagent (Invitrogen, Carlsbad, CA, USA) according to the manufacturer’s instructions. Transfection efficiency was monitored by Western blot. After 24 h of infection, cytotoxicity was measured using infected cells.

SK2 = biological target: T2, SK2 (Homo sapiens, UniProt Q9NRA0); experiment: SK2 activity assay (Adapta screening system); details: read-out: SK2 inhibitory efficacy
T2 sequence (Q9NRA0 1-654): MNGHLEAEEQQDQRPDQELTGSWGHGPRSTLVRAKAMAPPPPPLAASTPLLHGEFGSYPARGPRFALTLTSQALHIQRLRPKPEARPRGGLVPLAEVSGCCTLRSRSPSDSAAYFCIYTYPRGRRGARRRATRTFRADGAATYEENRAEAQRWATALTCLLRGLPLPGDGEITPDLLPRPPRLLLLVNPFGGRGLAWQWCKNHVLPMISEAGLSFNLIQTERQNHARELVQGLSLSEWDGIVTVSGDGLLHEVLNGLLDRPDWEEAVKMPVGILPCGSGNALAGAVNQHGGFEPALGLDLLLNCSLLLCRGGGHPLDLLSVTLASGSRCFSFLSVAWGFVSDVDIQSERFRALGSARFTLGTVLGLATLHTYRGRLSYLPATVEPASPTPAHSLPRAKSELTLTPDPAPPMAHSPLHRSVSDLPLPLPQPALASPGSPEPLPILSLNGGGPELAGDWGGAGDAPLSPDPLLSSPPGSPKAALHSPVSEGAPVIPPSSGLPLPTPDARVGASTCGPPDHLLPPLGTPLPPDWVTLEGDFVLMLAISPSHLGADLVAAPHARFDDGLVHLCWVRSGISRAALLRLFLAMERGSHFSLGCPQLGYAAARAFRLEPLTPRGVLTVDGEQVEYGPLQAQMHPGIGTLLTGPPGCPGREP

SK1 [13] = biological target: T1, SK1; parameters: purchased Thermo Fisher Scientific; method as in PMID 32526899; details: cited from earlier work
SK1 [14] = biological target: T1, SK1; parameters: purchased Thermo Fisher Scientific; method as in PMID 32526899; details: read-out: SK1 inhibitory effect (IC50); cited from earlier work
[15] = previous studies; cited from earlier work

SMILES: Cc1cc(CN(Cc2cc(C)cc(CS(=O)(=O)c3ccccc3)c2)c2ccc(CCN3CCC(O)CC3)cc2)cc(CS(=O)(=O)c2ccccc2)c1 [Compound 2, 1-(4-(Bis(3-methyl-5-((phenylsulfonyl)methyl)benzyl)amino)phenethyl)piperidin-4-ol]
- expression of proteins and mRNAs of SK1 and SK2 (A549 cells [1]): did not affect
- MS DLM [2]: 18.6
- cytotoxic effects compared with FTY720 (A549 and H1299 cells; 20 and 40 μM, A549 and H1299 cells): cytotoxic effects similar to those of FTY720
- IC50 (A549 and H1299 cells; Homo sapiens, 24 h, read-out: IC50 (cytotoxic effect)): 7.07 µM
- apoptotic effect (annexin-V) (A549 cells [3]; 5 μM): significant effect
- apoptotic effect (annexin-V) (A549 cells [3]; 10 μM): significantly higher apoptotic effect compared to PF-543
- selectivity for SK1 (SK1 [4]; SK1 vs SK2, compared to PF-543): lower selectivity for SK1 compared to PF-543
- inhibition at 10 µM (SK1 [4]; read-out: SK1 inhibitory efficacy): 39%
- S1P levels (A549 cells [5]): reduced
- ceramide levels (A549 cells [5]): increased
- sphingosine levels (A549 cells [5]): sphingosine expression at a level similar to that of PF-543
- MS RLM [6]: 29.1
- change in mitochondrial membrane potential (MMP), JC-10 (A549 cells [7]): significantly increased compared to that after treatment with PF-543
- MS HLM [8]: 18.1
- levels of PARP, Caspase-3 and cleaved PARP (A549 cells [9]): levels of PARP and Caspase-3 were decreased and cleavage of PARP was increased
- MS MLM [10]: 24.6
- colony formation (A549 cells [11]): reduce colony formation in a concentration-dependent manner
- dependence of cytotoxic efficacy on SK1/SK2 (siRNA knockdown) (A549 cells [12]): more dependent on SK1, although SK2 is also partially involved
- inhibition at 10 µM (SK2): 44%

SMILES: Cc1cc(CN(Cc2cc(C)cc(CS(=O)(=O)c3ccccc3)c2)c2ccc(CCO)cc2)cc(CS(=O)(=O)c2ccccc2)c1 [Compound 7]
- binding affinity for SK1 (Ka) (SK1 [13]): 3.9e+07 M⁻¹
- IC50 (SK1 [14]): 0.14 µM

SMILES: Cc1cc(CS(=O)(=O)c2ccccc2)cc(OCc2ccc(CN3CCC[C@@H]3CO)cc2)c1 [PF-543, reference compound]
- MS DLM [2]: 7.3
- MS RLM [6]: 7.8
- metabolic stability (MS) [15]: poor
- MS MLM [10]: 9.4

Reference: paper PMC9611471 (Pharmaceutics, 2022)
